# According to ChEMBL document CHEMBL6078646, “Target Ligand Separation and Identification of Isoforsythiaside as a Histone Lysine-Specific Demethylase 1 Covalent Inhibitor Against Breast Cancer Metastasis” (J Med Chem, 2024):
# Active and inactive are the calls of the source. The rule behind the calls is not given here.
# Tests used:
# [1] = Toxicity in female Balb/c mouse assessed as effect on AST level at 50 mg/kg, ip administered every other day for 7 times; format: organism-based; conditions: in vivo
# MDA-MB-231 [2] = experiment: Antimetastatic activity against human MDA-MB-231-Luc cells xenografted in female Balb/c nude mouse assessed as smaller metastatic nodules in lung at 12 to 50 mg/kg, ip administered every 3 days and measured after 30 days by H and E staining based analysis; format: functional, organism-based; conditions: dose 12-50 mg/kg, time 30.0 day
# MDA-MB-231 [3] = experiment: Antimetastatic activity against LSD1 knockout human MDA-MB-231 cells xenografted in wild type zebrafish yolk sac assessed as inhibition of cell migration at 12.5 mg/L incubated for 3 days by fluorescence microscopic analysis; format: functional, cell-based; conditions: time 3.0 day
# Homo sapiens [4] = species: Homo sapiens; experiment: Binding affinity to recombinant LSD1 Ser817A mutant (unknown origin) assessed as protection of pronase-dependent degradation at 15 to 75 uM preincubated for 30 mins followed by pronase addition and measured after 30 mins by DARTS assay; conditions: dose 15-75 µM, time 60.0 min
# [5] = target: T1, Lysine-specific histone demethylase 1A (Homo sapiens, UniProt O60341); experiment: Binding affinity to recombinant LSD1 (unknown origin) at S817 residue by LC-MS/MS analysis
# [6] = target: T1, Lysine-specific histone demethylase 1A; experiment: Non-competitive inhibition of LSD1 (unknown origin) using H3K4me2 as substrate by Lineweaver-Burk plot analysis
# MDA-MB-231 [7] = experiment: Induction of RBMS3 promoter transcriptional activity in human MDA-MB-231 cells by luciferase reporter gene assay; format: functional, cell-based
# [8] = Cytotoxicity against human MCF-10A cells assessed as cell viability at 0 to 100 uM incubated for 24 hrs by MTT assay; format: toxicity, cell-based; conditions: dose 0-100 µM, read-out: Activity
# [9] = Toxicity in female Balb/c nude mouse xenografted with human MDA-MB-231 cells expressing luciferase assessed as abnormalities heart at 12 to 50 mg/kg, ip administered every 3 days and measured after 30 days by H and E staining based analysis; format: organism-based; conditions: in vivo, 720 h, dose 12-50 mg/kg, time 30 day
# MDA-MB-231 [10] = experiment: Antimetastatic activity against LSD1 knockout human MDA-MB-231 cells xenografted in mouse model assessed as reduction in metastatic nodules in lung measured after 27 days by H and E staining based analysis; format: functional, cell-based; conditions: time 27.0 day
# MDA-MB-231 [11] = experiment: Effect on N-cadherin protein expression in LSD1 knockout human MDA-MB-231 cells at 16 uM by Western blot analysis; format: functional, cell-based
# MDA-MB-231 [12] = experiment: Induction of LSD1 degradation in human MDA-MB-231 cells incubated for 12 hrs by Western blotting analysis; format: cell-based
# MDA-MB-231 [13] = experiment: Antimetastatic activity against human MDA-MB-231 cells expressing luciferase xenografted in female Balb/c nude mouse assessed as reduction in fluorescence intensity in lungs at 50 mg/kg, ip administered every 3 days and measured on day 15 by bioluminescence imaging analysis relative to control; format: functional; parameters: scale not given: the % may be the effect or the level left; conditions: time 15 day
# [14] = target: T1, Lysine-specific histone demethylase 1A; experiment: Binding affinity to LSD1 (unknown origin) assessed as dissociation constant by Microscale thermophoresis assay
# [15] = target: T1, Lysine-specific histone demethylase 1A; experiment: Binding affinity to LSD1 (unknown origin) assessed as thermal stability preincubated for 30 mins followed by incubation under 37 to 52 degreeC for 5 mins by CETSA; conditions: time 35.0 min
# MDA-MB-231 [16] = experiment: Antimetastatic activity against human MDA-MB-231 cells expressing luciferase xenografted in female Balb/c nude mouse assessed as reduction in number of metastatic nodules in the lung at 50 mg/kg, ip administered every 3 days and measured after 30 days by H and E staining based histopathological analysis relative to control; format: functional; parameters: scale not given: the % may be the effect or the level left; conditions: time 30 day
# Homo sapiens [17] = species: Homo sapiens; experiment: Binding affinity to recombinant LSD1 Ser817A mutant (unknown origin) assessed as thermal stability at 50 uM preincubated for 30 mins followed by incubation under 37 to 52 degreeC for 5 mins by CETSA; conditions: time 35.0 min
# [18] = Toxicity in female Balb/c mouse assessed as effect on hemoglobin level at 50 mg/kg, ip administered every other day for 7 times; format: organism-based; conditions: in vivo
# [19] = Toxicity in female Balb/c mouse assessed as effect on BUN level at 50 mg/kg, ip administered every other day for 7 times; format: organism-based; conditions: in vivo
# MDA-MB-231 [20] = experiment: Upregulation of RBMS3 promoter level in human MDA-MB-231 cells by chromatin immunoprecipitation assay; format: functional, cell-based
# [21] = target: T1, Lysine-specific histone demethylase 1A; experiment: Stabilization of LSD1 in human MDA-MB-231 cells incubated for 24 hrs in presence of cycloheximide by Western blotting analysis; format: cell-based
# Homo sapiens [22] = species: Homo sapiens; experiment: Effect on LSD1/CoREST/HDAC1/HDAC2 (unknown origin) complex by coimmunoprecipitation analysis
# MDA-MB-231 [23] = experiment: Antitumor activity against human MDA-MB-231 cells expressing luciferase xenografted in female Balb/c nude mouse assessed as increase in body weight at 12 to 50 mg/kg, ip administered every 3 days and measured after 33 days; format: functional, organism-based; conditions: dose 12-50 mg/kg, time 33.0 day
# MDA-MB-231 [24] = experiment: Antimetastatic activity against human MDA-MB-231 cells expressing luciferase xenografted in female Balb/c nude mouse assessed as reduction in fluorescence intensity in lungs at 12 mg/kg, ip administered every 3 days and measured on day 15 by bioluminescence imaging analysis relative to control; format: functional; parameters: scale not given: the % may be the effect or the level left; conditions: time 15 day
# [25] = Acute toxicity in female ICR mouse assessed as lethal dose administered intraperitoneally for 14 days; conditions: in vivo, route ip, time 14 day
# [26] = Tmax in male Sprague-Dawley rat at 10 mg/kg, ip measured at 0 to 1440 mins by LC-MS/MS analysis; format: ADME, organism-based; conditions: in vivo, time 0-1440 min
# [27] = target: T1, Lysine-specific histone demethylase 1A; experiment: Binding affinity to LSD1 (unknown origin) assessed as protection of pronase-dependent degradation at 15 to 75 uM preincubated for 30 mins followed by pronase addition and measured after 30 mins by DARTS assay; conditions: dose 15-75 µM, time 60.0 min
# MCF7 = experiment: Cytotoxicity against human MCF7 cells assessed as cell viability at 0 to 100 uM incubated for 24 hrs by MTT assay; format: functional; conditions: dose 0-100 µM
# [28] = Toxicity in female Balb/c mouse assessed as effect on creatinine level at 50 mg/kg, ip administered every other day for 7 times; format: organism-based; conditions: in vivo
# MDA-MB-231 [29] = experiment: Upregulation of RBMS3 protein expression in human MDA-MB-231 cells at 4 to 32 uM by Western blotting analysis; format: functional, cell-based; conditions: dose 4-32 µM
# [30] = Toxicity in female Balb/c nude mouse xenografted with human MDA-MB-231 cells expressing luciferase assessed as abnormalities liver at 12 to 50 mg/kg, ip administered every 3 days and measured after 30 days by H and E staining based analysis; format: organism-based; conditions: in vivo, 720 h, dose 12-50 mg/kg, time 30 day
# Homo sapiens [31] = species: Homo sapiens; experiment: Inhibition of recombinant LSD1 Ser817A mutant (unknown origin)
# MDA-MB-231 [32] = experiment: Upregulation of H3K4me1 protein expression in human MDA-MB-231 cells by Western blot analysis; format: functional, cell-based; conditions: dose 4-32 µM
# MDA-MB-231 [33] = experiment: Inhibition of cell migration in human MDA-MB-231 cells incubated for 24 hrs by phase contrast microscopy based wound healing assay; format: functional; conditions: dose 0-32 µM
# [34] = Toxicity in female Balb/c mouse assessed as effect on lymphocyte level at 50 mg/kg, ip administered every other day for 7 times; format: organism-based; conditions: in vivo
# MDA-MB-231 [35] = experiment: Effect on LSD1 nuclear localization in human MDA-MB-231 cells transfected with LSD1 fluorescence antibody by fluorescence based analysis; format: functional, cell-based
# MDA-MB-231 [36] = experiment: Inhibition of cell invasion in LSD1 knockout human MDA-MB-231 cells at 16 uM incubated for 24 hrs by phase contract microscopy based transwell assay; format: functional
structure (smiles),measurement,setting,value
C[C@@H]1O[C@H](OC[C@H]2O[C@@H](OCCc3ccc(O)c(O)c3)[C@H](O)[C@@H](OC(=O)/C=C/c3ccc(O)c(O)c3)[C@@H]2O)[C@H](O)[C@H](O)[C@H]1O,Activity,[1],Non-toxic
same,Activity,MDA-MB-231 [2],Active
same,Activity,MDA-MB-231 [3],Active; No Significant Difference With Lsd1 Knockout Control Group
same,Activity,Homo sapiens [4],inactive
same,Activity,[5],Active
same,inhibition,[6],Active
same,Activity,MDA-MB-231 [7],Active
same,"viability at 24 h, up to 100 µM",[8],> 90%
same,Activity,[9],Non-toxic
same,Activity,MDA-MB-231 [10],Active; No Significant Difference Compared To Lsd1 Knockout Control Group
same,Activity,MDA-MB-231 [11],inactive
same,Activity,MDA-MB-231 [12],Active
same,Activity,MDA-MB-231 [13],73.3%
same,Kd,[14],5.19 µM
same,Activity,[15],Active
same,Activity,MDA-MB-231 [16],52.5%
same,Activity,Homo sapiens [17],inactive
same,Activity,[18],Non-toxic
same,Activity,[19],Non-toxic
same,Activity,MDA-MB-231 [20],Active
same,Activity,[21],Active
same,Activity,Homo sapiens [22],inactive
same,Activity,MDA-MB-231 [23],Active; Slight Increase In Body Weight Observed
same,Activity,MDA-MB-231 [24],32.9%
same,LD50 at 336 h,[25],> 600 mg/kg
same,Tmax,[26],1.33 h
same,Activity,[27],Active
same,Activity,MCF7,>90%
same,Activity,[28],Non-toxic
same,Activity,MDA-MB-231 [29],Active
same,Activity,[30],Non-toxic
same,inhibition,Homo sapiens [31],inactive
same,Activity,MDA-MB-231 [32],Dose-dependent-effect
same,inhibition,MDA-MB-231 [33],Dose-dependent-effect
same,Activity,[34],Non-toxic
same,Activity,MDA-MB-231 [35],inactive
same,inhibition,MDA-MB-231 [36],Active; No Significant Difference With Lsd1 Knockout Control Group
